PMC7956166, “Phage-Display Based Discovery and Characterization of Peptide Ligands against WDR5” (Molecules, 2021)
Positions of bridges follow the written chain, without caps; N, C: chain ends. Residues, ends and D or L forms follow the SMILES beside them. No end group written: not given here.

Target: T1, WDR5 (Homo sapiens, UniProt P61964)
T1 construct: DNA fragment encoding amino acids 23 to 483 of WDR5 subcloned in the pET-28a plasmid; His6 (N); SUMO (N); made in house; host or cells: Escherichia coli BL21(DE3)
Assay: Fluorescence polarization (FP) competitive binding assay
Settings: for EC50: FP competitive assay vs fluorescently labeled tracer (2.5 nM), 0.2 M phosphate, 300 mM NaCl, 0.1% CHAPS, pH 6.5, 0.5 mM TCEP, 4 h incubation, 384-well plate, two independent experiments; for EC50 / Ki: mean ± standard error; for Ki: Ki from nonlinear regression fitting based on Kd of the probe, protein 5 nM
Description: The fluorescence polarization (FP) binding assays used to evaluate the ability of these cyclic peptides targeting protein WDR5 were carried out in the 384-well plate. We synthesized the fluorescently labeled positive compound [28, 29]: 1-((3′,6′-dihydroxy-3-oxo-3H-spiro[isobenzofuran-1,9′-xanthen]-5-yl)amino)-N-(3′-(3,5-dimethylbenzamido)-4′-(4-methylpiperazin-1-yl)-[1,1′-biphenyl]-4-yl)-1-thioxo-5,8,11-trioxa-2-azatetradecan-14-amide, which was used in direct binding assay against WDR5. 10 μL of 10 nM positive compound was added to 20 μL WDR5(the final concentration was 5 nM) in the buffer containing 0.2 M phosphate; 300 mM NaCl; 0.1%CHAPS; PH 6.5; 0.5 mM TCEP. Then the peptide compound to be tested was diluted in a gradient and added to each well with 10μL. Finally, the assay was carried out in 40 μL volume and the protein tracer mixture was incubated for 4 h before reading the plate. The fluorescence polarization was measured in Synergy™ Neo2 Multi-Mode Microplate Reader using an excitation filter at 485 nm and an emission filter at 535 nm. Each experiment was done two times and each polarization readings consisted of two averaged measurements. The reading is processed by the following formula:(1) Inhibition=C−F/C−B×100% where C is the anisotropy value of the fluorescence substrate bound to the protein completely, B is the anisotropy value of the fluorescence substrate, F is the corresponding anisotropy value after adding different concentrations of peptides. The data were plotted against the log peptide concentration and was fitted into a one site-Fit logIC50 equation with Graphpad Prim5 software using nonlinear regression model to obtain the competitive curve:(2) Y=A+B−A/1+10^(x−LogIC50) where x is log10 of the compound concentration in M, Y is the inflection point (EC50 or IC50), A is the bottom plateau effect, B is the top plateau effect. Potency (IC50/EC50) is the log of the concentration of competitor that results in binding half-way between bottom and top.
The EC50 values of peptides were determined in competitive binding experiments by nonlinear regression fitting of the competition curves as mentioned above. And Ki values of competitive inhibitors were obtained directly by nonlinear regression fitting, based upon the Kd values of the probe to different proteins and concentrations of the proteins and probes in the competitive assays. The data is processed by the following formula:(3) F0=P+L0+Kd−(P+L0+Kd)^2−4×P×L0/2×L0 (4) IC50/F0×Kd/(1−F0)(2−F0)+F0×L0/2=Ki(2−F0)/Kd×F0+1 where P is the proteins concentration in the assay (5 nM), L0 is the Tracer concentration in the assay (2.5 nM), F0 and the corresponding Ki value can be calculated according to the above formula.

[1] = FP competitive assay, tracer 2.5 nM

Row | Compound | EC50 (WDR5 5 nM) [nM] | Ki [1] [nM] | binding to WDR5 (in words) (FP competitive assay, WDR5 5 nM, tracer 2.5 nM, pH 6.5)
1 | CC(C)C[C@@H]1NC(=O)[C@H]([C@@H](C)O)NC(=O)[C@H](CCCNC(=N)N)NC(=O)[C@@H](N)CSSC[C@@H](C(=O)O)NC(=O)[C@H](CCC(=O)O)NC(=O)[C@H](Cc2c[nH]cn2)NC(=O)[C@H](Cc2ccccc2)NC(=O)[C@@H]2CCCN2C1=O [D206115] (H-CRTLPFHEC-OH; disulfide 1-9) | 5900 ± 200 | 1200 ± 40 | –
2 | CC(C)C[C@@H]1NC(=O)[C@H]([C@@H](C)O)NC(=O)[C@H](CCCNC(=N)N)NC(=O)[C@@H](N)CSSC[C@@H](C(=O)O)NC(=O)[C@H](CC(N)=O)NC(=O)[C@H](CC(N)=O)NC(=O)[C@H](Cc2c[nH]c3ccccc23)NC(=O)[C@@H]2CCCN2C1=O [D206179] (H-CRTLPWNNC-OH; disulfide 1-9) | 2300 ± 600 | 500 ± 100 | –
3 | CC(C)C[C@@H]1NC(=O)[C@H]([C@@H](C)O)NC(=O)[C@H](CCCNC(=N)N)NC(=O)[C@@H](N)CSSC[C@@H](C(=O)O)NC(=O)[C@H](C)NC(=O)CNC(=O)[C@H](Cc2ccc(O)cc2)NC(=O)[C@@H]2CCCN2C1=O [D206180] (H-CRTLPYGAC-OH; disulfide 1-9) | 2700 ± 200 | 500 ± 50 | –
4 | CC(C)C[C@@H]1NC(=O)[C@H]([C@@H](C)O)NC(=O)[C@H](CCCNC(=N)N)NC(=O)[C@@H](N)CSSC[C@@H](C(=O)O)NC(=O)[C@H](CO)NC(=O)CNC(=O)[C@H](Cc2ccccc2)NC(=O)[C@@H]2CCCN2C1=O [D206181] (H-CRTLPFGSC-OH; disulfide 1-9) | 4400 ± 400 | 900 ± 80 | –
5 | CEKMVATHC (disulfide 1-9 (inferred)) [D206116, disulfide-constrained cyclic peptide from phage display, without “RT” motif] | – | – | unable to bind to WDR5
